Experimental data: paper PMC5218480 (PLoS ONE, 2017)

Test system: MV-4-11 cells
Test: Gene expression microarray analysis (Affymetrix PrimeView) and GSEA
Assay type: cell-based, human
Set-up: RFU PODN (11730768_x_at) / Fold change /veh PODN (11730768_x_at) / RFU LINC00158 (11744669_a_at) / Fold change /veh LINC00158 (11744669_a_at) / RFU DUSP10 (11751237_a_at) / Fold change /veh DUSP10 (11751237_a_at) / RFU ID3 (11757404_x_at) / Fold change /veh ID3 (11757404_x_at) / RFU PLEKHG5 (11737974_s_at) / Fold change /veh PLEKHG5 (11737974_s_at) / RFU LRRC4B (11730491_at) / Fold change /veh LRRC4B (11730491_at) / RFU GIMAP4 (11747438_a_at) / Fold change /veh GIMAP4 (11747438_a_at) / RFU KRT8 (11758183_x_at) / Fold change /veh KRT8 (11758183_x_at) / RFU CNN1 (11734310_a_at) / Fold change /veh CNN1 (11734310_a_at) / RFU VPS37D (11726825_at) / Fold change /veh VPS37D (11726825_at) / RFU C10orf10 (11716522_x_at) / Fold change /veh C10orf10 (11716522_x_at) / RFU KIR2DL2 /// KIR2DL4 /// KIR2DL5A /// KIR2DL5B /// KIR2DS1 /// KIR2DS2 /// KIR2DS3 /// KIR2DS4 /// KIR3DL3 /// KIR3DL3 /// KIR3DS1 (11738374_at) / Fold change /veh KIR2DL2 /// KIR2DL4 /// KIR2DL5A /// KIR2DL5B /// KIR2DS1 /// KIR2DS2 /// KIR2DS3 /// KIR2DS4 /// KIR3DL3 /// KIR3DL3 /// KIR3DS1 (11738374_at) / RFU C1QL1 (11718748_at) / Fold change /veh C1QL1 (11718748_at) / RFU TMPRSS4 (11747572_a_at) / Fold change /veh TMPRSS4 (11747572_a_at) / RFU HAMP (11756126_x_at) / Fold change /veh HAMP (11756126_x_at) / RFU RNFT2 (11725882_a_at) / Fold change /veh RNFT2 (11725882_a_at) / RFU NR4A2 (11747474_a_at) / Fold change /veh NR4A2 (11747474_a_at) / RFU ABCC12 (11746883_a_at) / Fold change /veh ABCC12 (11746883_a_at) / RFU TMEM136 (11760407_x_at) / Fold change /veh TMEM136 (11760407_x_at) / RFU CLDN22 /// WWC2 (11732394_at) / Fold change /veh CLDN22 /// WWC2 (11732394_at) / RFU HLA-DPB1 (11760878_x_at) / Fold change /veh HLA-DPB1 (11760878_x_at) / RFU SPINT1 (11716480_a_at) / Fold change /veh SPINT1 (11716480_a_at) / RFU GAP43 (11754022_s_at) / Fold change /veh GAP43 (11754022_s_at) / RFU A4GNT (11735810_at) / Fold change /veh A4GNT (11735810_at) / RFU PRB3 (11715151_x_at) / Fold change /veh PRB3 (11715151_x_at) / RFU TUBB4B (11761932_at) / Fold change /veh TUBB4B (11761932_at) / RFU CAPN14 (11732068_a_at) / Fold change /veh CAPN14 (11732068_a_at) / RFU TMCC2 (11721928_a_at) / Fold change /veh TMCC2 (11721928_a_at) / RFU IRGQ (11745062_a_at) / Fold change /veh IRGQ (11745062_a_at) / RFU FAM174B (11720279_a_at) / Fold change /veh FAM174B (11720279_a_at) / RFU TMPRSS4 (11748680_a_at) / Fold change /veh TMPRSS4 (11748680_a_at) / RFU FAM212B (11763350_a_at) / Fold change /veh FAM212B (11763350_a_at) / RFU PLEKHG5 (11743358_a_at) / Fold change /veh PLEKHG5 (11743358_a_at) / RFU ZSCAN30 (11745921_a_at) / Fold change /veh ZSCAN30 (11745921_a_at) / RFU CMKLR1 (11741424_a_at) / Fold change /veh CMKLR1 (11741424_a_at) / RFU LOC101060620 /// MAPK8IP1 (11723275_at) / Fold change /veh LOC101060620 /// MAPK8IP1 (11723275_at) / RFU SPTSSB (11747773_x_at) / Fold change /veh SPTSSB (11747773_x_at) / RFU PRSS12 (11739890_at) / Fold change /veh PRSS12 (11739890_at) / RFU BIN1 (11741810_x_at) / Fold change /veh BIN1 (11741810_x_at) / RFU WNT11 (11732464_a_at) / Fold change /veh WNT11 (11732464_a_at) / RFU C10orf10 (11716521_a_at) / Fold change /veh C10orf10 (11716521_a_at) / RFU C5orf56 (11738089_at) / Fold change /veh C5orf56 (11738089_at) / RFU CYB561 (11721691_x_at) / Fold change /veh CYB561 (11721691_x_at) / RFU ANKRD19P (11752326_a_at) / Fold change /veh ANKRD19P (11752326_a_at) / RFU OR2T12 /// OR2T33 /// OR2T8 (11738714_s_at) / Fold change /veh OR2T12 /// OR2T33 /// OR2T8 (11738714_s_at) / RFU VCAN (11748164_a_at) / Fold change /veh VCAN (11748164_a_at) / RFU JSRP1 (11732532_at) / Fold change /veh JSRP1 (11732532_at) / RFU KRTAP10-11 (11738290_x_at) / Fold change /veh KRTAP10-11 (11738290_x_at) / RFU MYO3A (11730013_a_at) / Fold change /veh MYO3A (11730013_a_at) / RFU EBF3 (11725865_a_at) / Fold change /veh EBF3 (11725865_a_at) / RFU CAMK2N1 (11719241_x_at) / Fold change /veh CAMK2N1 (11719241_x_at) / RFU C5orf56 (11738088_a_at) / Fold change /veh C5orf56 (11738088_a_at) / RFU OLFML3 (11715873_a_at) / Fold change /veh OLFML3 (11715873_a_at) / RFU LOC100653217 /// NTM (11731650_a_at) / Fold change /veh LOC100653217 /// NTM (11731650_a_at) / RFU MAPK11 (11762145_a_at) / Fold change /veh MAPK11 (11762145_a_at) / RFU FIZ1 (11724087_x_at) / Fold change /veh FIZ1 (11724087_x_at) / RFU OASL (11726364_x_at) / Fold change /veh OASL (11726364_x_at) / RFU SOX15 (11748057_x_at) / Fold change /veh SOX15 (11748057_x_at) / RFU CD79A (11719716_a_at) / Fold change /veh CD79A (11719716_a_at) / RFU HIST1H1D (11736915_at) / Fold change /veh HIST1H1D (11736915_at) / RFU CASKIN2 (11723855_a_at) / Fold change /veh CASKIN2 (11723855_a_at) / RFU LOC730098 (11760151_x_at) / Fold change /veh LOC730098 (11760151_x_at) / RFU OR4N2 (11742367_at) / Fold change /veh OR4N2 (11742367_at) / RFU PRRT2 (11749266_a_at) / Fold change /veh PRRT2 (11749266_a_at) / RFU SNX32 (11753110_a_at) / Fold change /veh SNX32 (11753110_a_at) / RFU CDHR5 (11726645_a_at) / Fold change /veh CDHR5 (11726645_a_at) / RFU RCAN1 (11760418_a_at) / Fold change /veh RCAN1 (11760418_a_at) / RFU FAM167A (11723789_a_at) / Fold change /veh FAM167A (11723789_a_at) / RFU FAM26E (11764081_at) / Fold change /veh FAM26E (11764081_at) / RFU ISYNA1 (11749810_s_at) / Fold change /veh ISYNA1 (11749810_s_at) / RFU ACY1 (11761880_at) / Fold change /veh ACY1 (11761880_at) / RFU 11764098_at / Fold change /veh 11764098_at / RFU SAMD14 (11745864_x_at) / Fold change /veh SAMD14 (11745864_x_at) / RFU NPB (11741838_a_at) / Fold change /veh NPB (11741838_a_at) / RFU TMPRSS6 (11731388_a_at) / Fold change /veh TMPRSS6 (11731388_a_at) / RFU KRTAP10-2 (11738614_at) / Fold change /veh KRTAP10-2 (11738614_at) / RFU ARHGAP8 /// PRR5-ARHGAP8 (11727945_x_at) / Fold change /veh ARHGAP8 /// PRR5-ARHGAP8 (11727945_x_at) / RFU KRTAP5-7 /// NADSYN1 (11734609_at) / Fold change /veh KRTAP5-7 /// NADSYN1 (11734609_at) / RFU RASL12 (11751679_a_at) / Fold change /veh RASL12 (11751679_a_at) / RFU CDKN2B (11736163_a_at) / Fold change /veh CDKN2B (11736163_a_at) / RFU PRF1 (11729649_at) / Fold change /veh PRF1 (11729649_at) / RFU, ZNF638 /// ZNF638-IT1 / Fold change vs veh, ZNF638 /// ZNF638-IT1 / RFU, PANK3 / Fold change vs veh, PANK3 / RFU, SH3YL1 / Fold change vs veh, SH3YL1 / RFU, ZEB2 / Fold change vs veh, ZEB2 / RFU, NRIP1 / Fold change vs veh, NRIP1 / RFU, PTTG1IP / Fold change vs veh, PTTG1IP / RFU, CAPN2 / Fold change vs veh, CAPN2 / RFU, MED14 / Fold change vs veh, MED14 / RFU, SNORA58 / Fold change vs veh, SNORA58 / RFU, C1orf63 / Fold change vs veh, C1orf63 / RFU, LRRFIP1 / Fold change vs veh, LRRFIP1 / RFU, NDUFAF7 / Fold change vs veh, NDUFAF7 / RFU, SLC12A2 / Fold change vs veh, SLC12A2 / RFU, IBTK / Fold change vs veh, IBTK / RFU, ESF1 / Fold change vs veh, ESF1 / Fold change vs veh, TMEM50B / RFU, TAOK1 / Fold change vs veh, TAOK1 / RFU, ACBD3 / Fold change vs veh, ACBD3 / RFU, TMA16 / Fold change vs veh, TMA16 / RFU, RWDD3 / Fold change vs veh, RWDD3 / RFU, BCAT1 / Fold change vs veh, BCAT1 / RFU, EDEM3 / Fold change vs veh, EDEM3 / RFU, TMEM33 / Fold change vs veh, TMEM33 / RFU, WDR75 / Fold change vs veh, WDR75 / RFU, AHCTF1 / Fold change vs veh, AHCTF1 / RFU, TFRC / Fold change vs veh, TFRC / RFU, ZDHHC17 / Fold change vs veh, ZDHHC17 / RFU, NOM1 / Fold change vs veh, NOM1 / RFU, ARL8B / Fold change vs veh, ARL8B / RFU, ZBTB11 / Fold change vs veh, ZBTB11 / RFU, TAMM41 / Fold change vs veh, TAMM41 / RFU, KIAA1704 /// LOC100996395 / Fold change vs veh, KIAA1704 /// LOC100996395 / RFU, ING1 / Fold change vs veh, ING1 / RFU, TRMT61B / Fold change vs veh, TRMT61B / RFU, FUBP3 / Fold change vs veh, FUBP3 / RFU, TP53 / Fold change vs veh, TP53 / RFU, TNKS2 / Fold change vs veh, TNKS2 / RFU, ZFP14 / Fold change vs veh, ZFP14 / RFU, ACTR2 / Fold change vs veh, ACTR2 / RFU, PPP3R1 / Fold change vs veh, PPP3R1 / RFU, PIK3R1 / Fold change vs veh, PIK3R1 / RFU, HNRNPA1 / Fold change vs veh, HNRNPA1 / RFU, RNF170 / Fold change vs veh, RNF170 / RFU, ZNF28 / Fold change vs veh, ZNF28 / RFU, RNGTT / Fold change vs veh, RNGTT / RFU, OGT / Fold change vs veh, OGT / RFU, BRD1 / Fold change vs veh, BRD1 / RFU, MARS / Fold change vs veh, MARS / RFU, ZNF655 / Fold change vs veh, ZNF655 / RFU, FAHD1 / Fold change vs veh, FAHD1 / RFU, BDP1 / Fold change vs veh, BDP1 / RFU, LRRCC1 / Fold change vs veh, LRRCC1 / RFU, ARID1A / Fold change vs veh, ARID1A / RFU, ZNF146 / Fold change vs veh, ZNF146 / RFU, ZNF330 / Fold change vs veh, ZNF330 / RFU, GPN3 / Fold change vs veh, GPN3 / RFU, C9orf123 / Fold change vs veh, C9orf123 / RFU, N4BP2L2 / Fold change vs veh, N4BP2L2 / RFU, ARFIP1 / Fold change vs veh, ARFIP1 / RFU, FAM179B / Fold change vs veh, FAM179B / RFU, BCL10 / Fold change vs veh, BCL10 / RFU, UHRF1BP1L / Fold change vs veh, UHRF1BP1L / RFU, BET1 / Fold change vs veh, BET1 / RFU, CNOT2 / Fold change vs veh, CNOT2 / RFU, ZNF268 / Fold change vs veh, ZNF268 / Fold change vs veh, ZNF507 / RFU, DGCR2 / Fold change vs veh, DGCR2 / RFU, WDSUB1 / Fold change vs veh, WDSUB1 / Fold change vs veh, HSP90B1 /// MIR3652 / RFU, ADSS / Fold change vs veh, ADSS / RFU, GK / Fold change vs veh, GK / RFU, ZNF148 / Fold change vs veh, ZNF148 / RFU, TAF9 / Fold change vs veh, TAF9 / RFU, SLC1A5 / Fold change vs veh, SLC1A5 / RFU, SLMO2 / Fold change vs veh, SLMO2 / RFU, ABCC4 / Fold change vs veh, ABCC4 / RFU, LOC101060439 /// RAP1B / Fold change vs veh, LOC101060439 /// RAP1B / RFU, RFX7 / Fold change vs veh, RFX7 / RFU, GTPBP10 / Fold change vs veh, GTPBP10 / RFU, CNEP1R1 / Fold change vs veh, CNEP1R1 / RFU, BIVM-ERCC5 /// ERCC5 / Fold change vs veh, BIVM-ERCC5 /// ERCC5 / RFU, ILF3 / Fold change vs veh, ILF3 / RFU 11762660_at / Fold change /veh 11762660_at / RFU VCAN (11757783_s_at) / Fold change /veh VCAN (11757783_s_at) / RFU DDX43 (11728927_at) / Fold change /veh DDX43 (11728927_at) / RFU KRT8 (11758188_x_at) / Fold change /veh KRT8 (11758188_x_at) / RFU NKD1 (11759106_at) / Fold change /veh NKD1 (11759106_at) / RFU SRD5A1 (11742802_a_at) / Fold change /veh SRD5A1 (11742802_a_at) / RFU TPSAB1 /// TPSB2 (11721975_s_at) / Fold change /veh TPSAB1 /// TPSB2 (11721975_s_at) / RFU GSTM3 (11746129_a_at) / Fold change /veh GSTM3 (11746129_a_at) / RFU IL23R (11737362_x_at) / Fold change /veh IL23R (11737362_x_at) / RFU TMEM51 (11727254_a_at) / Fold change /veh TMEM51 (11727254_a_at) / RFU PIWIL2 (11732686_x_at) / Fold change /veh PIWIL2 (11732686_x_at) / RFU ORM1 (11744905_x_at) / Fold change /veh ORM1 (11744905_x_at) / RFU CCDC152 (11743942_at) / Fold change /veh CCDC152 (11743942_at) / RFU ECM1 (11717891_a_at) / Fold change /veh ECM1 (11717891_a_at) / RFU IL23R (11748794_a_at) / Fold change /veh IL23R (11748794_a_at) / RFU TNFAIP8L3 (11732012_x_at) / Fold change /veh TNFAIP8L3 (11732012_x_at) / RFU MBOAT4 (11741988_at) / Fold change /veh MBOAT4 (11741988_at) / RFU 11764193_at / Fold change /veh 11764193_at / RFU TMEM53 (11763286_at) / Fold change /veh TMEM53 (11763286_at) / RFU MAGEB2 (11727129_at) / Fold change /veh MAGEB2 (11727129_at) / RFU TMEM200A (11744735_a_at) / Fold change /veh TMEM200A (11744735_a_at) / RFU CCDC152 (11751479_a_at) / Fold change /veh CCDC152 (11751479_a_at) / RFU FAM211A (11726209_a_at) / Fold change /veh FAM211A (11726209_a_at) / RFU RGS16 (11746705_a_at) / Fold change /veh RGS16 (11746705_a_at) / RFU VCAN (11755009_s_at) / Fold change /veh VCAN (11755009_s_at) / RFU RHOB (11743442_s_at) / Fold change /veh RHOB (11743442_s_at) / RFU RGS16 (11720943_a_at) / Fold change /veh RGS16 (11720943_a_at) / RFU RGS16 (11720944_at) / Fold change /veh RGS16 (11720944_at) / RFU, VPS4B / Fold change vs veh, VPS4B / RFU, CREB1 / Fold change vs veh, CREB1 / RFU, DNAJC13 / Fold change vs veh, DNAJC13 / RFU, GNAQ / Fold change vs veh, GNAQ / RFU, CDK5R1 / Fold change vs veh, CDK5R1 / RFU, ZRANB3 / Fold change vs veh, ZRANB3 / RFU, CUL4A / Fold change vs veh, CUL4A / RFU, CCNY / Fold change vs veh, CCNY / RFU, UFL1 / Fold change vs veh, UFL1 / RFU, COG3 / Fold change vs veh, COG3 / RFU, DIAPH2 / Fold change vs veh, DIAPH2 / RFU, SKA2 / Fold change vs veh, SKA2 / RFU, AFF3 / Fold change vs veh, AFF3 / RFU, LMF1 / Fold change vs veh, LMF1 / RFU, IPO11 / Fold change vs veh, IPO11 / RFU, DFFB / Fold change vs veh, DFFB / RFU, FOXP1 / Fold change vs veh, FOXP1 / RFU, CARD8 / Fold change vs veh, CARD8 / RFU, STRN3 / Fold change vs veh, STRN3 / RFU, ADK / Fold change vs veh, ADK / RFU, RASSF2 / Fold change vs veh, RASSF2 / RFU, WIPF1 / Fold change vs veh, WIPF1 / RFU, LARP1B / Fold change vs veh, LARP1B / RFU, RASA1 / Fold change vs veh, RASA1 / RFU, RB1 / Fold change vs veh, RB1 / RFU, PPFIA1 / Fold change vs veh, PPFIA1 / RFU, MAT2A / Fold change vs veh, MAT2A / RFU, CCT5 / Fold change vs veh, CCT5 / RFU, WDR92 / Fold change vs veh, WDR92 / RFU, CUX1 / Fold change vs veh, CUX1 / RFU, TTC7A / Fold change vs veh, TTC7A / RFU, TMEM135 / Fold change vs veh, TMEM135 / RFU, DEPTOR / Fold change vs veh, DEPTOR / RFU, CPM / Fold change vs veh, CPM / RFU, DNAJB6 / Fold change vs veh, DNAJB6 / RFU, CACNA2D3 / Fold change vs veh, CACNA2D3 / RFU, DTX4 / Fold change vs veh, DTX4 / RFU, TFCP2 / Fold change vs veh, TFCP2 / RFU, GMCL1 /// GMCL1P1 / Fold change vs veh, GMCL1 /// GMCL1P1 / RFU, AEBP2 / Fold change vs veh, AEBP2 / RFU, SNHG1 /// SNORD22 /// SNORD25 /// SNORD26 /// SNORD27 /// SNORD28 /// SNORD29 /// SNORD31 / Fold change vs veh, SNHG1 /// SNORD22 /// SNORD25 /// SNORD26 /// SNORD27 /// SNORD28 /// SNORD29 /// SNORD31 / Fold change (Aza/veh), C12orf56 (ProbeSet 11735607_a_at) / Fold change (ACY-1035/veh), C12orf56 (ProbeSet 11735607_a_at) / Fold change (Aza/veh), FGFR1OP (ProbeSet 11751329_s_at) / Fold change (ACY-1035/veh), FGFR1OP (ProbeSet 11751329_s_at) / Fold change (Aza/veh), VPS36 (ProbeSet 11739960_a_at) / Fold change (ACY-1035/veh), VPS36 (ProbeSet 11739960_a_at) / RFU SYPL1 (11715823_x_at) / Fold change /veh SYPL1 (11715823_x_at) / RFU IGFBP7 (11715501_s_at) / Fold change /veh IGFBP7 (11715501_s_at) / RFU REEP3 (11722064_at) / Fold change /veh REEP3 (11722064_at) / RFU IGLL1 (11728026_x_at) / Fold change /veh IGLL1 (11728026_x_at): dose or concentration left out as unconfirmed
Details: ProbeSet 11716931_at; LIST B

Nc1ncn([C@@H]2O[C@H](CO)[C@@H](O)[C@H]2O)c(=O)n1 [azacitidine]
RFU, DGCR2: 177.81 RFU
